From PMC4088097 (Scientific Reports, 2014)
pKd: −log10 of the molar value.

Biological target: T1, ribose binding protein RbsB (Escherichia coli, UniProt P02925)
T1 sequence (P02925 26-296): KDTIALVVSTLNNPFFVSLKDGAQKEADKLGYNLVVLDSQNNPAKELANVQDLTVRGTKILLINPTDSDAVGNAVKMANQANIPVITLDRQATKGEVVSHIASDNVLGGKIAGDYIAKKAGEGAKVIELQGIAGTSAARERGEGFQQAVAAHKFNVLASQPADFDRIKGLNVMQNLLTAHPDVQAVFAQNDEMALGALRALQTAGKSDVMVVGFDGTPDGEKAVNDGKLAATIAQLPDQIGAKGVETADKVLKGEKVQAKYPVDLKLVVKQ
Test: ITC with purified protein, […]°C, one-site fit

O=C[C@H](O)[C@H](O)[C@H](O)CO [ribose]
pKd: 6.90
